From article PMC10046071 (Biomedicines, 2023)
Where “and” joins values, the source holds several entries; their conditions need not be identical. Equal entries are not always repeated.

What was measured:
[1] = Stability of stock and working solutions and of extracted samples in the autosampler; type: physicochemical; details: for stock solution stability, value for accuracy: DMSO stock, 10 days at −80 °C, versus freshly made, CV 3.7%; for working solution stability, value for accuracy: methanol, 8 h at room temperature, with or without light, CV 6.5%
Excerpt: However, in the present study it has been conducted to study the stability of the stock and working solutions, freeze–thaw stability and autosampler stability. For all stability studies, the analyte stability should fall within 85−115% of the nominal concentration and was not allowed to deviate more than ±15% from the nominal concentration of all the QCs studied, as indicated in the Guidelines for Bioanalytical Methods Validation.
On the other hand, the stability of the working solutions in methanol on each test day was evaluated after 8 h at room temperature with light and in the dark.
The stability in the autosampler of the sample after the extraction process was evaluated at room temperature in the range between 2 and 8 h.

[2] = 4 CML patients
[3] = cited from earlier work
[4] = in vitro, human plasma; cited from earlier work
[5] = test system: cytochrome P450 (CYP) 3A4; details: cited from earlier work
[6] = 493 subjects with CML; cited from earlier work
[7] = no reference given; cited from earlier work
[8] = Therapeutic drug monitoring: steady-state plasma pharmacokinetics in patients with CML; details: for Tmax / Cmin / Cmax: steady state; for CL/F: apparent oral clearance
[9] = 17 patients, 300 mg twice-daily
[10] = co-administered with a high-fat meal
[11] = Patient 1, 200–300 mg twice-daily oral
[12] = Patient 2, 200–300 mg twice-daily oral
[13] = Patient 3, 200–300 mg twice-daily oral
[14] = Patient 4, 200–300 mg twice-daily oral

## Cc1cn(-c2cc(NC(=O)c3ccc(C)c(Nc4nccc(-c5cccnc5)n4)c3)cc(C(F)(F)F)c2)cn1 [nilotinib, Nilotinib]
[1]
  stock solution stability, value for accuracy: less than 1.5%
  working solution stability, value for accuracy: lower than 15.1%
[1]; extracted sample, up to 8 h, room temperature
  degradation on the autosampler: < 8.3%
[2]
  Correlation of Cmin with ALT (U/L): −0.3552
  Correlation of Cmin with AST (U/L): −0.0833
  Correlation of Cmin with Alkaline phosphatase (U/L): 0.7497
  Correlation of Cmin with Haemaglobin (g/dL): −0.0319
  Correlation of Cmin with Haematocrit (%): 0.0870
  Correlation of Cmin with Leukocytes (×10^3/µL): −0.9194
  Correlation of Cmin with Neutrophils (×10^3/µL): −0.0280
  Correlation of Cmin with Platelet (×10^3/µL): −0.6949
  Correlation of Cmin with Serum bilirrubin (mg/dL): −0.4013
  Correlation of Cmin with Serum creatinine (g/dL): −0.1897
[3]; 300 mg twice-daily, some clinical trials, no reference given
  Cmin at a steady state: ~1123 ng/mL
[3]; [9]
  Cmax at steady state: 1360 ng/mL
  Cmin at steady state: 1123 ng/mL
[3]
  interindividual variability in exposure (coefficient of variation): 32–64%
[3]; [10]
  increase in the AUC: 50–82%
  increase in the Cmax: up to 112%
[3]; oral 400 mg twice daily
  mean area under the curve (AUC): 19000 ± 9100 ng·h/mL
  mean maximum plasma concentration (Cmax): 2320 ± 1070 ng/mL
[4]
  plasma protein binding: approximately 98%
[5]
  metabolizing enzymes: metabolized primarily by cytochrome P450 (CYP) 3A4 isoform and with minor contributions from CYP2C8
[6]
  trough concentration (Cmin) associated with longer times to complete cytogenetic response and MMR and shorter time to progression: < 469.4 ng/mL
[7]
  aqueous solubility versus pH: decreases significantly with increased pH
  pKa: 12.38
  solubility: good solubility in DMSO, organic solvents (methanol and acetonitrile) and acidic aqueous solution
[8]; Mean (SD) of 4 patients
  t1/2: 78.1 (75.4) h
  Tmax: 2.3 (1.3) h
[8]; Mean (SD) of 4 patients, 200–300 mg twice-daily
  Cmin: 1193.5 ng/mL and 1193.5 (414.7) ng/mL
[8]; Patient 1
  CL/F: 2.8 L/h
  Tmax: 1 h
[8]; Patient 1, elimination half-life
  t1/2: 25.1 h
[8]; [11]
  Cmax: 3491.4 ng/mL
  Cmin: 1633.9 ng/mL
[8]; Patient 2
  CL/F: 1.9 L/h
  Tmax: 2 h
[8]; Patient 2, elimination half-life
  t1/2: 69.3 h
[8]; [12]
  Cmax: 1137.2 ng/mL
  Cmin: 768.9 ng/mL
[8]; Patient 3
  CL/F: 0.6 L/h
  Tmax: 2 h
[8]; Patient 3, elimination half-life
  t1/2: 187.4 h
[8]; [13]
  Cmax: 1988.4 ng/mL
  Cmin: 1450.3 ng/mL
[8]; Patient 4
  CL/F: 5.7 L/h
  Tmax: 4 h
[8]; Patient 4, elimination half-life
  t1/2: 30.7 h
[8]; [14]
  Cmax: 1103.5 ng/mL
  Cmin: 920.7 ng/mL

## Cc1cc(/C=C/C#N)cc(C)c1Nc1ccnc(Nc2ccc(C#N)cc2)n1 [rilpivirine]
[1]
  stock solution stability, value for accuracy: less than 1.5%
  working solution stability, value for accuracy: lower than 15.1%
